Measurements reported in patent US10669242B2 (priority 2016, dated 2020).

biological target: T1, recombinant glucosyltransferase domain of C. difficile Toxin B/TcdB (Clostridioides difficile, UniProt P18177); assay: biochemical
T1 construct: 6-His (C); purchased R&D Systems 6246-GT
T1 sequence (P18177 1-543): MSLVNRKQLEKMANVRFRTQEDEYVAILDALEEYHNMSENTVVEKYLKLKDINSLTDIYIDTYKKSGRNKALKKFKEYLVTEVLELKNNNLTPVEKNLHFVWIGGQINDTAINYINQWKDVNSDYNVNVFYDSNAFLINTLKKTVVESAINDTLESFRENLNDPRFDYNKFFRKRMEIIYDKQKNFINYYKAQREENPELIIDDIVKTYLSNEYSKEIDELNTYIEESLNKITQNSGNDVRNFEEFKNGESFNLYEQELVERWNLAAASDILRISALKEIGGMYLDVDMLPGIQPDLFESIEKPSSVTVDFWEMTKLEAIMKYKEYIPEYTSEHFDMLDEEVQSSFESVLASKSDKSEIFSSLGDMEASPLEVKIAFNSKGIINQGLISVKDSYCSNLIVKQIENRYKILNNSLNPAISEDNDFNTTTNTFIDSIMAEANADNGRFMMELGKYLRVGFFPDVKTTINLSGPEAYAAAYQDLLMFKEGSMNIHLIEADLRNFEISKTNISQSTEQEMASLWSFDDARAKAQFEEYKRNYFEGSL

| Compound | IC50 [nM] |
| --- | --- |
| Cc1cc(NC(=O)c2ccc(CN3C(=O)c4ccc(Cl)cc4NC(=O)[C@H]3Cc3cccnc3)cc2)no1 [Example 4e, (R)-4-((8-chloro-2,5-dioxo-3-(pyridin-3-ylmethyl)-2,3-dihydro-1H-benzo[e][1,4]diazepin-4(5H)-yl)methyl)-N-(5-methylisoxazol-3-yl)benzamide] | < 100 |
| C[C@H]1C(=O)Nc2cc(Cl)ccc2C(=O)N1Cc1ccc(C(=O)Nc2ccccn2)cc1 [Example 4f, (S)-4-((8-chloro-3-methyl-2,5-dioxo-2,3-dihydro-1H-benzo[e][1,4]diazepin-4(5H)-yl)methyl)-N-(pyridin-2-yl)benzamide] | < 100 |
| O=C(Nc1ccccn1)c1ccc(CN2C(=O)c3ccc(Cl)cc3NC(=O)[C@H]2CCc2ccccc2)cc1 [Example 4g, (R)-4-((8-chloro-2,5-dioxo-3-phenethyl-2,3-dihydro-1H-benzo[e][1,4]diazepin-4(5H)-yl)methyl)-N-(pyridin-2-yl)benzamide] | 1000 to 10000 |
| O=C(Nc1ccccn1)c1ccc(CN2C(=O)c3ccc(Cl)cc3NC(=O)[C@H]2Cc2ccccc2)cc1 [Example 4h, (R)-4-((3-benzyl-8-chloro-2,5-dioxo-2,3-dihydro-1H-benzo[e][1,4]diazepin-4(5H)-yl)methyl)-N-(pyridin-2-yl)benzamide] | < 100 |
| O=C(Nc1ccccn1)c1ccc(CN2C(=O)c3ccc(Cl)cc3NC(=O)[C@H]2Cc2ccc(F)cc2)cc1 [Example 4i, (R)-4-((8-chloro-3-(4-fluorobenzyl)-2,5-dioxo-2,3-dihydro-1H-benzo[e][1,4]diazepin-4(5H)-yl)methyl)-N-(pyridin-2-yl)benzamide] | < 100 |
| O=C(Nc1ccccn1)c1ccc(CN2C(=O)c3ccc(Cl)cc3NC(=O)[C@H]2Cc2ccc(Cl)cc2)cc1 [Example 4j, (R)-4-((8-chloro-3-(4-chlorobenzyl)-2,5-dioxo-2,3-dihydro-1H-benzo[e][1,4]diazepin-4(5H)-yl)methyl)-N-(pyridin-2-yl)benzamide] | 1000 to 10000 |
| Cc1cccnc1NC(=O)c1ccc(CN2C(=O)c3ccc(Cl)cc3NC(=O)[C@H]2Cc2cccnc2)cc1 [Example 4k, (R)-4-((8-chloro-2,5-dioxo-3-(pyridin-3-ylmethyl)-2,3-dihydro-1H-benzo[e][1,4]diazepin-4(5H)-yl)methyl)-N-(3-methylpyridin-2-yl)benzamide] | 100 to 999 |
| COc1ccc2c(c1)NC(=O)[C@@H](Cc1ccc(Cl)c(Cl)c1)N(Cc1ccc(C(=O)Nc3ccccn3)cc1)C2=O [Example 4l, (R)-4-((3-(3,4-dichlorobenzyl)-8-methoxy-2,5-dioxo-2,3-dihydro-1H-benzo[e][1,4]diazepin-4(5H)-yl)methyl)-N-(pyridin-2-yl)benzamide] | < 100 |
| CN(C(=O)c1ccc(CN2C(=O)c3ccc(Cl)cc3NC(=O)[C@H]2Cc2cccnc2)cc1)c1ccccn1 [Example 4m, (R)-4-((8-chloro-2,5-dioxo-3-(pyridin-3-ylmethyl)-2,3-dihydro-1H-benzo[e][1,4]diazepin-4(5H)-yl)methyl)-N-methyl-N-(pyridin-2-yl)benzamide] | 100 to 999 |
| Cc1ccc(NC(=O)c2ccc(CN3C(=O)c4ccc(Cl)cc4NC(=O)[C@H]3Cc3cccnc3)cc2)nc1 [Example 4n, (R)-4-((8-chloro-2,5-dioxo-3-(pyridin-3-ylmethyl)-2,3-dihydro-1H-benzo[e][1,4]diazepin-4(5H)-yl)methyl)-N-(5-methylpyridin-2-yl)benzamide] | < 100 |
| Cc1cccc(NC(=O)c2ccc(CN3C(=O)c4ccc(Cl)cc4NC(=O)[C@H]3Cc3cccnc3)cc2)n1 [Example 4o, (R)-4-((8-chloro-2,5-dioxo-3-(pyridin-3-ylmethyl)-2,3-dihydro-1H-benzo[e][1,4]diazepin-4(5H)-yl)methyl)-N-(6-methylpyridin-2-yl)benzamide] | 10000 to 35000 |
| COc1ccc2c(c1)NC(=O)[C@@H](Cc1cccnc1)N(Cc1ccc(C(=O)Nc3ccccn3)cc1)C2=O [Example 4p, (R)-4-((8-methoxy-2,5-dioxo-3-(pyridin-3-ylmethyl)-2,3-dihydro-1H-benzo[e][1,4]diazepin-4(5H)-yl)methyl)-N-(pyridin-2-yl)benzamide] | < 100 |
